Test results taken from US12685777B2, “Compositions, systems, and methods for modulating a target gene” (The Board of Trustees of the Leland Stanford Junior …, priority 2022, dated 2026).

Key:
BCL6 mRNA = assay: RT-qPCR of BCL6 isoforms; type: cell-based, human; settings: 10 nM
Procedure: 12. RNA Extraction, qPCR, and Sequencing Library Preparation Cells were plated at 1 M/mL and harvested in TRIsure (Bioline #38033). RNA was extracted using Direct-zol RNA MicroPrep columns (Zymo #R^2062) treated with DNAseI. cDNA was prepared for RT-qPCR using the SensiFAST cDNA preparation kit according to manufacturer instructions (Bioline #65054). 1 μL of cDNA was used per RT-qPCR reaction prepared with SYBR Lo-ROX (Bioline #94020). For sequencing library preparation, polyA-containing transcripts were enriched for (NEB #E7490S) and prepared into paired-end libraries (NEB #E7760S). Libraries were sequenced on an Illumina NovaSeq (Novogene). 13. Western Blots
Thus, TCIPs can rewire a repressive negative feedback pathway into a positive feedback pathway, amplifying the potency of the molecule in killing cancer cells (model in FIG. 40, Panel D).

[1] = Mouse tolerability and pharmacokinetic study; type: in vivo
Procedure: Vehicle was the same formulation (5/5/80 DMSO/Tween-80/Saline). The formulation was checked to be a clear solution and after administration, the animal was put back in its cage. For PK properties, plasma levels were measured at 0, 5, 15, 30, 60, 120, 240, 360, and 480 mins after drug administration. For tolerability work, bodyweights and observation of animal health were recorded each day through 5 days of dosing once daily. After 5 days, tissues were collected 8 hours after the last drug administration and split into one part for RNA-seq, homogenized in TRIzoI (Thermo #15596026), another part for histology, snap-frozen, and another part for measurement of drug levels where molar concentrations were recorded with the assumption of 1 g tissue ~1 mL. FFPE blocks (on snap-frozen tissue) and H & E staining were done by the Stanford Histology/Pathology Service Core, by Prof. Hannes Vogel, MD and Pauline Chu.
After treatment, mouse tissue was harvested for RNA-seq and histology.

[2] = tested on: BRD4, Pol II ser 2 phos, H3K27ac occupancy; assay: ChIP-seq of BRD4, Pol II ser 2 phos, H3K27ac in KARPAS422 cells; type: cell-based, human
Procedure: Cells were washed in PBS and crosslinked for 12 minutes in CiA Fix Buffer (50 mM HEPES pH 8.0, 1 mM EDTA, 0.5 mM EGTA, 100 mM NaCl) with addition of formaldehyde to a final concentration of 1%. The crosslinking reaction was quenched by glycine added at 0.125 M final concentration. Crosslinked cells were centrifuged at 1,000×g for 5 minutes. Nuclei were prepared by 10 minute incubation of resuspended pellet in CiA NP-Rinse 1 buffer (50 mM HEPES pH 8.0, 140 mM NaCl, 1 mM EDTA, 10% glycerol, 0.5% IPEGAL CA-630, 0.25% Triton X100) followed by wash in CIA NP-Rinse 2 buffer (10 mM Tris pH 8.0, 1 mM EDTA, 0.5 mM EGTA, 200 mM NaCl). The pellet was resuspended in CiA Covaris Shearing Buffer (0.1% SDS, 1 mM EDTA pH 8.0, 10 mM Tris HCl pH 8.0) with 1000× protease inhibitors (Roche) and sonicated for 20 minutes with Covaris E220 sonicator (Peak Power 140, Duty Factor 5.0, Cycles/Burst 200). The distribution of fragments was confirmed with agarose gel. 300 μL of chromatin per ChIP was used with anti-BRD4 antibodies (Cell Signaling E2A7X). 50 μg of chromatin was used with anti-Pol II ser 2 phos (Abcam ab5095) and anti-Pol II ser 5 phos (ActiveMotif 3E8) antibodies. 25 μg of chromatin was used with anti-H3K27ac (Abcam ab4729). For each Pol II ser 2 phos, Pol II ser 5 phos, and H3K27ac ChIP, exactly 20 ng (for Pol II ser 2 phos and ser 5 phos) or 50 ng (for H3K27ac) Drosophila chromatin (ActiveMotif #53083) was spiked-in with 2 μL spike-in-chromatin-specific antibody (ActiveMotif #61686). After overnight incubation at 4° C. in IP buffer (50 mM HEPES pH 7.5, 300 mM NaCl, 1 mM EDTA, 1% Triton X100, 0.1% sodium deoxycholic acid salt (DOC), 0.1% SDS), Ips were washed twice with IP buffer, once with DOC buffer (10 mM Tris pH 8, 0.25 M LiCl, 0.5% IPEGAL CA-630, 0.5% sodium deoxycholic acid salt (DOC), 1 mM EDTA), and, once with 10 mM Tris/1 mM EDTA buffer (TE) pH 8. Ips and inputs were reverse-crosslinked in TE/0.5% SDS/0.5 μg/μL proteinase K for 55° C./3 hours then 65° C./18 hours, then DNA was purified using a PCR cleanup spin column (Takara #74609). The sequencing library preparation was performed using NEBNext Ultra II DNA kit (#E7645S). Libraries were sequenced on an Illumina NovaSeq (Novogene).
The data quality was checked using fastqc. The raw reads were trimmed from adapters with trim_galore (parameters: —paired—255 Ilumine) and raw reads were aligned to hg38 human genome assembly and the dm6 fly genome assembly using bowtie2 (parameters: —local—maxins 1000). Low quality reads, duplicated reads and reads with multiple alignments were removed using samtools (Li et al., Bioinformatics (2009) 25: 2078-2079) and Picard (broadinstitute.github.io/picard/). Macs2 was used to map position of peaks with FDR cutoff of 0.05. Bedtools (Quinlan et al, Bioinformatics (2010) 26: 841-842) was used to find consensus set of peaks by merging peaks across multiple conditions (bedtools merge), count number of reads in peaks (bedtools intersect—c) and generate genome coverage (bedtools genomecov-bga). deepTools (Ramirez et al., Nucleic Acids Research (2016) 44: W160-W165). […] This procedure was carried out on a per-antigen basis (i.e., the H3K27ac ChIPs were treated separately from the Pol II ser 2 phos ChIPs which were separate from the Poll II ser 5 phos ChIPs). The average percentage of reads in each sample that mapped to the fly genome was 1.8±1.4% (mean±s.d.). All browser tracks and metaprofiles shown were calculated with spike-in normalized and input-subtracted data. The peak differential analysis and PCA analysis was performed using DESeq2^82.
BRD4 and other BET proteins have previously been implicated largely in transcriptional elongation, particularly in mediating P-TEFb/CDK9 activation of RNA Polymerase II ([…]) elongation activity by phosphorylation of serine 2 of the C-terminal domain (CTD) of Pol II ([…] ser 2 phos). […]

[3] = C57BL/6 mice, 10 mg/kg IP once daily for 5 days
[4] = RNA-seq, 10 mg/kg IP q.d. 5 days
[5] = after 2 hours, of 51,678 consensus peaks

| Compound | Time to upregulation of the long isoform of BCL6 mRNA (BCL6 mRNA) [h] | Body weight change [1, 3] | H & E staining and examination of tissue [1, 3] | Tolerability [1, 3] | Genes downregulated in the liver [1, 4] [genes] | Genes downregulated in the lung [1, 4] [genes] | Genes downregulated in the spleen [1, 4] | Genes upregulated in the liver [1, 4] [genes] | Genes upregulated in the lung [1, 4] [genes] | Genes upregulated in the spleen [1, 4] | Increase of BRD4 at promoters of BCL6 target genes / genomic BCL6 binding sites ([2]; ChIP-seq, one hour) [%] | H3K27ac peaks decreased [2, 5] [peaks] | H3K27ac peaks increased [2, 5] [peaks] | Time to Pol II serine 2 phosphorylation (transcriptional elongation) at BCL6 targets ([2]; 10 nM) [min] | Loss of BRD4 from enhancers and super enhancers ([2]; ChIP-seq) | Fraction of total BRD4 recruited / relocalized to BCL6 target genes ([2]; Karpas 422, one hour) |
| --- | --- | --- | --- | --- | --- | --- | --- | --- | --- | --- | --- | --- | --- | --- | --- | --- |
| CNC(=O)COc1cc2cc(Nc3nc(N4CCC(C(=O)NCCCCCCCNC(=O)C[C@@H]5N=C(c6ccc(Cl)cc6)c6c(sc(C)c6C)-n6c(C)nnc65)CC4)ncc3Cl)cc(OC)c2n(C)c1=O [TCIP1] | 1 to 2 | no significant changes in mouse body weight | did not reveal noticeable abnormalities | well-tolerated with no adverse effects noticed | 167 | 204 | 2,471 genes | 255 | 301 | 2,785 genes | 50 | 70 | 126 | – | – | – |
| CNC(=O)COc1cc2cc(Nc3nc(N4CCC(C(=O)NCCCCCCCNC(=O)C[C@@H]5N=C(c6ccc(Cl)cc6)c6c(sc(C)c6C)-n6c(C)nnc65)CC4)ncc3Cl)cc(OC)c2n(C)c1=O [JWZ-7-7, (S)-1-(5-chloro-4-((8-methoxy-1-methyl-3-(2-(methylamino)-2-oxoethoxy)-2-oxo-1,2-dihydroquinolin-6-yl)amino)pyrimidin-2-yl)-N-(7-(2-(4-(4-chlorophenyl)-2,3,9-trimethyl-6H-thieno[3,2-f][1,2,4]triazolo[4,3-a][1,4]diazepin-6-yl)acetamido)heptyl)piperidine-4-carboxamide] | – | – | – | – | – | – | – | – | – | – | – | – | – | ≤ 15 | about 10% | about 10% |
